The results in this text go back to patent publication US20180099931A1 (AbbVie S.à.r.l., priority 2016, published 2018).

The structures appear in SMILES notation. Read-outs that look alike come from different tables or passages of the source.

For this assay, the target named is T1, F508delCFTR (Homo sapiens, UniProt P13569, DEL508-508).
T1 construct: expressed in transfected cells; host or cells: CFBE41o- human lung-derived epithelial cells (CFBE4lo-F508delCFTR-HRP), doxycycline-inducible
The assay is described as follows: Cell Surface Expression-Horse Radish Peroxidase (CSE-HRP) Assay.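 For Maximum % activity (with co-corrector): co-corrector and positive control are both the same reference corrector at 2 µM.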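 For Maximum % activity (without co-corrector): percent of the 2 µM on-plate positive control corrector response above DMSO.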 Format: cell-based. The settings on record: for Emax / Maximum % activity (with co-corrector): maximum at any tested concentration, normalized to on-plate positive control; for Emax: read-out: Maximum % activity (without co-corrector).

The mark [1] stands for this setting: test compound without co-corrector.
Setting [2] is: test compound without co-corrector, read-out: EC50 (without co-corrector).
The mark [3] stands for this setting: with co-corrector (2 μM of 3-[(2R,4R)-4-({[1-(2,2-difluoro-1,3-benzodioxol-5-yl)cyclopropyl]carbonyl}amino)-7-methoxy-3,4-dihydro-2H-chromen-2-yl]benzoic acid).
[4] abbreviates: with co-corrector (2 μM of 3-[(2R,4R)-4-({[1-(2,2-difluoro-1,3-benzodioxol-5-yl)cyclopropyl]carbonyl}amino)-7-methoxy-3,4-dihydro-2H-chromen-2-yl]benzoic acid), read-out: EC50 (with co-corrector).
Where [5] appears, read: CSE-HRP, test compound without co-corrector, read-out: EC50 (without co-corrector).
The mark [6] stands for this setting: CSE-HRP, with co-corrector (2 μM of 3-[(2R,4R)-4-({[1-(2,2-difluoro-1,3-benzodioxol-5-yl)cyclopropyl]carbonyl}amino)-7-methoxy-3,4-dihydro-2H-chromen-2-yl]benzoic acid), read-out: EC50 (with co-corrector).
Setting [7] is: CSE-HRP, with co-corrector (2 μM).

T1 sequence (P13569 with tags, fused parts or gaps DEL508-508): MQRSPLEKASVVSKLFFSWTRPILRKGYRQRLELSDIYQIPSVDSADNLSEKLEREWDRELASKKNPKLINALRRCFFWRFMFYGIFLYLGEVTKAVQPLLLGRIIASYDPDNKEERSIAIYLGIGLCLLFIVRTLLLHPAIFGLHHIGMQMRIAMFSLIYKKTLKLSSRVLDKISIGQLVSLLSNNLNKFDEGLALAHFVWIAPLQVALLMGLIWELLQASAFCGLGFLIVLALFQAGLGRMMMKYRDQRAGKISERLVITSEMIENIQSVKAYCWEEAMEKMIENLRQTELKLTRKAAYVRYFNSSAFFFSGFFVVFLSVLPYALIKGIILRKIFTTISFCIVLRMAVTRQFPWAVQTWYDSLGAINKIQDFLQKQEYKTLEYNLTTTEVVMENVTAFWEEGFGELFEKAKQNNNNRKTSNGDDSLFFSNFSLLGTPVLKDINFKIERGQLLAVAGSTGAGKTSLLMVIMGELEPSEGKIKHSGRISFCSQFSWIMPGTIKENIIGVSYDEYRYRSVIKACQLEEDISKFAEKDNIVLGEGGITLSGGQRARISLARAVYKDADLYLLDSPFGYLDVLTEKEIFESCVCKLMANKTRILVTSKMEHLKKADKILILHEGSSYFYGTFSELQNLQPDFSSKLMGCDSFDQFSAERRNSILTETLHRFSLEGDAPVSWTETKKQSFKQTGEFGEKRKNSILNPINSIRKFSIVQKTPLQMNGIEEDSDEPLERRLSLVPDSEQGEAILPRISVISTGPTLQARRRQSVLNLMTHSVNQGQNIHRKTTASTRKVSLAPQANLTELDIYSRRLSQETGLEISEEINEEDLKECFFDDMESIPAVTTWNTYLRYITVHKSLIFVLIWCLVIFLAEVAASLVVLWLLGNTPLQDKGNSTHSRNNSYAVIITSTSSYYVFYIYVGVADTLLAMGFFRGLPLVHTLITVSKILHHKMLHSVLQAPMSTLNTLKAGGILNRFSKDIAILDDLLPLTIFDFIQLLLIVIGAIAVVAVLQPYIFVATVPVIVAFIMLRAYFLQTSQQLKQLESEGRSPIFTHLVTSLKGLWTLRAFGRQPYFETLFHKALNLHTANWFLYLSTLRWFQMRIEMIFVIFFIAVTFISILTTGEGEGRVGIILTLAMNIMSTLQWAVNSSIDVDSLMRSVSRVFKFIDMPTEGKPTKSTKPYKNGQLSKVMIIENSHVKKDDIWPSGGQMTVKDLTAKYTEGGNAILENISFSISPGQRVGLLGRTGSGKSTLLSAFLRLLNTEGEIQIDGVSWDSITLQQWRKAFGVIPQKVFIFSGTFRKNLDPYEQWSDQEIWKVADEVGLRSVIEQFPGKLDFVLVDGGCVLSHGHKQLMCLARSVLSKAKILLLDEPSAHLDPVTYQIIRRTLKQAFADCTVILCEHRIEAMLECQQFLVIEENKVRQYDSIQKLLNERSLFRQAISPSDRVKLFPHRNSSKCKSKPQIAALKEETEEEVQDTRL

As a reminder, the EC50 is the concentration that produces a half-maximal response. `COc1ccc(C(C)(C)C)cc1CN[C@H]1[C@H](C(C)(C)C)[C@@H](C(=O)O)N(C(=O)C2CCCCO2)[C@H]1c1cccnc1OC(F)F` (single isomer, unassigned) [II-489]: under setting [1], the Emax was 100 to 200%. In addition, the half-maximal effective concentration (EC50) by setting is: under setting [2], 1000 to 10000 nM; under setting [4], 1000 to 10000 nM. For the same compound, the “Maximum % activity (with co-corrector)” value under setting [3] was “+++ (≥350)”.

On to `COc1ccc(C(C)(C)C)cc1CN[C@H]1[C@H](C(C)(C)C)[C@@H](C(=O)O)N(S(=O)(=O)c2ccn(C)n2)[C@H]1c1ccccc1` [II-154], for which the EC50 by setting is: under setting [5], 1000 to 10000 nM; under setting [6], 1000 to 10000 nM. The “Maximum % activity (with co-corrector)” value under setting [7] is “+++ (≥350)”. In addition, the Emax (CSE-HRP, without co-corrector) lay within 100 to 200%.

For the compound `CC(C)(C)[C@H]1[C@H](NCc2ccc(C(F)(F)F)cc2)[C@H](c2ccccc2)N(C(=O)C2CCCCC2)[C@@H]1C(=O)O` [III-138], the Emax under setting [1] was below 100%. Besides, the EC50 runs as follows: under setting [2], above 10000 nM; under setting [4], 1000 to 10000 nM. For the setting “with co-corrector (2 μM)”, the “Maximum % activity (with co-corrector)” value was “++ (≥150 and <350)”.

As for `CC(C)(C)[C@@H]1[C@@H](Nc2cc(C(F)(F)F)ccn2)[C@@H](c2ccccc2)N(C(=O)C2CCCCC2)[C@H]1C(=O)O` (racemic) [III-4], under setting [1], the Emax was below 100%. In addition, the EC50 reads like this: under setting [2], 1000 to 10000 nM; under setting [4], 1000 to 10000 nM. Besides, the “Maximum % activity (with co-corrector)” value under setting [3] is on record as “+++ (≥350)”.

Take `COc1ncc(C(F)(F)F)cc1CN[C@H]1[C@H](C(C)(C)C)[C@@H](C(=O)O)N(C(=O)[C@@H]2CCCO2)[C@H]1c1cccnc1C1CC1` [II-586]: the Emax under setting [1] is below 100%. In addition, the EC50 under setting [2] lay within 1000 to 10000 nM and the EC50 under setting [4] was in the range of 1000 to 10000 nM. Under setting [3], the “Maximum % activity (with co-corrector)” value was “++ (≥150 and <350)”.

Take `COc1ccc(C(C)(C)C)cc1CN[C@H]1[C@H](C(C)(C)C)[C@@H](C(=O)O)N(C(=O)C2Cc3ccccc3O2)[C@H]1c1cccnc1OC` (single isomer, unassigned) [Example I-165]: the EC50 is below 1000 nM under setting [2] and below 1000 nM under setting [4]. Moreover, the “Maximum % activity (with co-corrector)” value (with co-corrector (2 μM)) was “+++ (≥350)”. Further, where the note is “without co-corrector”, the Emax lay in the range of 100 to 200%.

`COc1ccc(Cl)cc1CN[C@@H]1[C@@H](C(C)(C)C)[C@H](C(=O)O)N(C(=O)C2COCCO2)[C@@H]1c1ccccc1` (mixture of isomers) [II-86]: the EC50 lay within 1000 to 10000 nM under setting [5] and 1000 to 10000 nM under setting [6]. Further, under setting [7], the “Maximum % activity (with co-corrector)” value was “++ (≥150 and <350)”. Besides, under “CSE-HRP, without co-corrector”, the Emax was below 100%.

For the compound `Cc1c(N[C@H]2[C@H](C(C)(C)C)[C@@H](C(=O)O)N(C(=O)C3CCCCC3)[C@H]2c2ccccc2)c(Cl)nc2ccc(F)cc12` [II-144], the EC50 fell in the range of 1000 to 10000 nM under setting [5] and 1000 to 10000 nM under setting [6]. For the same compound, under setting [7], the “Maximum % activity (with co-corrector)” value is on record as “+++ (≥350)”. Where the note is “CSE-HRP, without co-corrector”, the Emax was 100 to 200%.

`COc1ncc(C2CCC2)cc1CN[C@H]1[C@H](C(C)(C)C)[C@@H](C(=O)O)N(C(=O)[C@@H]2CCCO2)[C@H]1c1ccccc1C(C)C` [Example 89, (2S,3S,4S,5S)-3-tert-butyl-4-{[(5-cyclobutyl-2-methoxypyridin-3-yl)methyl]amino}-1-[(2S)-oxolane-2-carbonyl]-5-[2-(propan-2-yl)phenyl]pyrrolidine-2-carboxylic acid]: the EC50 was 1000 to 10000 nM under setting [2] and below 1000 nM under setting [4]. The “Maximum % activity (with co-corrector)” value (with co-corrector (2 μM)) is given as “+++ (≥350)”. Moreover, under “without co-corrector”, the Emax is above 200%.

Regarding `COc1ccc(C(C)(C)C)cc1CN[C@H]1[C@H](C(C)(C)C)[C@@H](C(=O)O)N(C(=O)c2ccc(OC(F)(F)F)cc2)[C@H]1c1cccnc1N(C)C` [II-467], the Emax under setting [1] fell in the range of 100 to 200%. Moreover, the EC50 runs as follows: under setting [2], below 1000 nM; under setting [4], below 1000 nM. The “Maximum % activity (with co-corrector)” value under setting [3] was “+++ (≥350)”.

Regarding `COc1ccc(C(F)(F)F)cc1CN[C@@H]1[C@@H](C(C)(C)C)[C@H](C(=O)O)N(C(=O)C2CCC(F)(F)CC2)[C@@H]1c1ccccc1` (racemic) [II-68], the 50% effective concentration (EC50) lay in the range of 1000 to 10000 nM under setting [5] and 1000 to 10000 nM under setting [6]. Moreover, the “Maximum % activity (with co-corrector)” value under setting [7] was “+++ (≥350)”. Besides, the Emax (CSE-HRP, without co-corrector) was below 100%.

With `COc1ccc(C(C)(C)C)cc1CN[C@H]1[C@H](C(C)(C)C)[C@@H](C(=O)O)N(C(=O)C2CCC(F)(F)C2)[C@H]1c1ccccc1` (stereo partly drawn) [II-334], the Emax under setting [1] was above 200%. Moreover, the EC50 runs as follows: under setting [2], 1000 to 10000 nM; under setting [4], 1000 to 10000 nM. Further, the “Maximum % activity (with co-corrector)” value under setting [3] is “+++ (≥350)”.

For the compound `COc1ccc(Cl)cc1CN[C@@H]1[C@@H](C2CC2)[C@H](C(=O)O)N(C(=O)N(C(C)C)C(C)C)[C@@H]1c1ccccc1` (racemic) [III-48], the Emax under setting [1] was below 100%. The EC50 is above 10000 nM under setting [2] and 1000 to 10000 nM under setting [4]. In addition, the “Maximum % activity (with co-corrector)” value under setting [3] is “++ (≥150 and <350)”.

For `COc1ccc(C(C)(C)C)cc1CN[C@H]1[C@H](C(C)(C)C)[C@@H](C(=O)O)N(C(=O)C2CC2c2cccs2)[C@H]1c1ccccc1` (stereo partly drawn) [III-193], under setting [1], the Emax was above 200%. For the same compound, the EC50 under setting [2] was below 1000 nM and the EC50 under setting [4] was below 1000 nM. Besides, the “Maximum % activity (with co-corrector)” value (with co-corrector (2 μM)) is reported as “+++ (≥350)”.

In the case of `COc1cc2c(cc1CN[C@H]1[C@H](C(C)(C)C)[C@@H](C(=O)O)N(C(=O)OC(C)C)[C@H]1c1ccccc1)CCC2` [III-226], the Emax under setting [1] is above 200%. In addition, the EC50 is 1000 to 10000 nM under setting [2] and 1000 to 10000 nM under setting [4]. Also, the “Maximum % activity (with co-corrector)” value (with co-corrector (2 μM)) was “+++ (≥350)”.

As to `COCCn1ccnc1CN[C@@H]1[C@@H](C(C)(C)C)[C@H](C(=O)O)N(C(=O)C2CCCCC2)[C@@H]1c1ccccc1` (racemic) [III-24], the Emax under setting [1] was below 100%. Besides, the concentration for a half-maximal effect (EC50) is above 10000 nM under setting [2] and above 10000 nM under setting [4]. For the same compound, the “Maximum % activity (with co-corrector)” value under setting [3] is “+ (<150)”.

Regarding `COc1ccc(C(C)(C)C)cc1CN[C@H]1[C@H](C(C)(C)C)[C@@H](C(=O)O)N(C(=O)Cc2cccc(C)c2)[C@H]1c1ccccc1` [II-203], the EC50 reads like this: under setting [5], 1000 to 10000 nM; under setting [6], below 1000 nM. Under setting [7], the “Maximum % activity (with co-corrector)” value was “+++ (≥350)”. Moreover, the Emax (CSE-HRP, without co-corrector) lay within 100 to 200%.

As to `COc1ccc(C(C)(C)C)cc1CN[C@H]1[C@H](C(C)(C)OC)[C@@H](C(=O)O)N(C(=O)OC(C)C)[C@H]1c1ccccc1` [II-419], the Emax under setting [1] was above 200%. Besides, the EC50 under setting [2] was in the range of 1000 to 10000 nM and the EC50 under setting [4] lay in the range of 1000 to 10000 nM. Besides, the “Maximum % activity (with co-corrector)” value under setting [3] is “+++ (≥350)”.

Regarding `CC(C)(C)[C@H]1[C@H](NCc2ccc(F)cc2C#N)[C@H](c2ccccc2)N(C(=O)C2CCCCC2)[C@@H]1C(=O)O` [III-127], the Emax under setting [1] is below 100%. In addition, the EC50 was above 10000 nM under setting [2] and above 10000 nM under setting [4]. Also, for the setting “with co-corrector (2 μM)”, the “Maximum % activity (with co-corrector)” value is listed as “+ (<150)”.

With `COc1ccc2c(c1)[C@@](C)(C(=O)N1[C@H](C(=O)O)[C@@H](C(C)(C)C)[C@H](NCc3cc(C(C)(C)C)ccc3OC)[C@@H]1c1cccnc1OC)CC2` [II-569], the Emax under setting [1] is below 100%. Further, the EC50 is, setting by setting: under setting [2], 1000 to 10000 nM; under setting [4], 1000 to 10000 nM. The “Maximum % activity (with co-corrector)” value under setting [3] is “+++ (≥350)”.

Take `COc1ccc(-c2ccco2)cc1CN[C@H]1[C@H](C(C)(C)C)[C@@H](C(=O)O)N(C(=O)C2CCCCC2)[C@H]1c1ccccc1` [II-291]: the EC50 reads like this: under setting [5], 1000 to 10000 nM; under setting [6], 1000 to 10000 nM. In addition, the “Maximum % activity (with co-corrector)” value under setting [7] was “+++ (≥350)”. The Emax (CSE-HRP, without co-corrector) is above 200%.
